Reference: patent US7739055B2, “Methods and systems for generating and evaluating peptides” (priority 2005, dated 2010)
Values after ≈ are worked out from the molar mass of the structure shown. Where two headings read alike, the source gives them in different places. Where a SMILES comes first, the peptide text is derived from it.

How the values were obtained:
[1] = test system: B. cereus
[2] = test system: Smith Diffuse strain of Staphylococcus aureus
[3] = test system: Escherichia coli
[4] = test system: Sterne strain of Bacillus anthracis
[5] = test system: human red blood cells
[6] = first concentration that prohibits growth by OD at 24 hours, Table 1

Molecule | MIC B. cereus ([1]; 24 h) | MIC S. aureus ([2]; Smith Diffuse strain of) | MIC E. coli ([3]; 24 h) | MIC B. anthracis [4] | HC50, hemolytic concentration at which the peptides lyse 50% of human red blood cells [5] | MIC E. coli [3] | MIC S. aureus ([2]; Smith Diffuse strain, Table 1) | MIC E. coli [3, 6] | MIC B. cereus [1, 6] | MIC B. cereus [1] | MIC S. aureus [2]
CC(C)C[C@H](NC(=O)CNC(=O)[C@H](Cc1ccccc1)NC(=O)[C@H](CC(C)C)NC(=O)[C@@H](N)Cc1ccccc1)C(=O)N[C@@H](C)C(=O)N[C@@H](CO)C(=O)N[C@@H](CCCCN)C(=O)N[C@H](C(=O)N[C@@H](Cc1ccccc1)C(=O)N1CCC[C@H]1C(=O)N[C@@H](C)C(=O)N[C@H](C(=O)N[C@@H](Cc1ccc(O)cc1)C(=O)N[C@@H](CS)C(=O)N[C@@H](CCCCN)C(=O)N[C@H](C(=O)N[C@H](C(=O)N[C@@H](CCCNC(=N)N)C(=O)N[C@@H](CCCCN)C(=O)O)[C@@H](C)O)C(C)C)C(C)C)C(C)C [Peptide 5] (H-FLFGLASKVFPAVYCKVTRK-OH; N-terminus and C-terminus assumed) | 256 µg/mL (≈ 113 µM) | 256 µg/mL (≈ 113 µM) | 64 µg/mL (≈ 28.1 µM) | 128 µg/mL (≈ 56.3 µM) |  |  |  |  |  |  | 
CC[C@H](C)[C@H](NC(=O)[C@@H](NC(=O)[C@H](C)NC(=O)[C@@H]1CCCN1C(=O)[C@H](Cc1ccccc1)NC(=O)[C@@H](NC(=O)[C@H](CCCCN)NC(=O)[C@H](CO)NC(=O)[C@H](C)NC(=O)[C@@H](NC(=O)[C@H](CCCNC(=N)N)NC(=O)[C@H](Cc1ccccc1)NC(=O)[C@H](CC(C)C)NC(=O)[C@H](C)NC(=O)CNC(=O)[C@@H](N)CC(C)C)C(C)C)C(C)C)C(C)C)C(=O)N[C@@H](CO)C(=O)N[C@@H](CCSC)C(=O)N[C@H](C(=O)N[C@@H](CCCCN)C(=O)O)C(C)C [Peptide 22] (H-LGALFRVASKVFPAVISMVK-OH; N-terminus and C-terminus assumed) | 64 µg/mL (≈ 30 µM) | 64 µg/mL (≈ 30 µM) | 256 µg/mL (≈ 120 µM) | 64 µg/mL (≈ 30 µM) |  |  |  |  |  |  | 
CC(C)C[C@H](NC(=O)[C@H](CCCCN)NC(=O)[C@H](Cc1ccccc1)NC(=O)[C@@H](NC(=O)[C@@H](NC(=O)CNC(=O)[C@H](CC(C)C)NC(=O)[C@@H](N)Cc1ccccc1)C(C)C)C(C)C)C(=O)N[C@@H](C)C(=O)N[C@@H](CO)C(=O)N[C@@H](CCCCN)C(=O)N[C@H](C(=O)N[C@@H](Cc1ccccc1)C(=O)N1CCC[C@H]1C(=O)N[C@@H](C)C(=O)N[C@H](C(=O)N[C@@H](Cc1ccccc1)C(=O)NCC(=O)N[C@@H](CCCCN)C(=O)N[C@H](C(=O)O)C(C)C)C(C)C)C(C)C [Peptide 28] (H-FLGVVFKLASKVFPAVFGKV-OH; N-terminus and C-terminus assumed) | 16 µg/mL (≈ 7.43 µM) | 8 µg/mL (≈ 3.71 µM) | 64 µg/mL (≈ 29.7 µM) | 16 µg/mL (≈ 7.43 µM) | 42 µg/mL |  |  |  |  |  | 
CC[C@H](C)[C@H](NC(=O)[C@H](CC(C)C)NC(=O)[C@H](C)NC(=O)[C@@H]1CCCN1C(=O)[C@H](Cc1ccccc1)NC(=O)[C@@H](NC(=O)[C@H](CCCCN)NC(=O)[C@H](CO)NC(=O)[C@H](C)NC(=O)[C@@H](NC(=O)[C@H](CCCNC(=N)N)NC(=O)[C@H](Cc1ccccc1)NC(=O)[C@@H](NC(=O)[C@@H](NC(=O)[C@@H]1CCCN1C(=O)[C@@H](N)CC(C)C)C(C)C)C(C)C)C(C)C)C(C)C)C(=O)N[C@@H](CO)C(=O)N[C@@H](CCCCN)C(=O)N[C@@H](CC(C)C)C(=O)N[C@H](C(=O)O)[C@@H](C)O [Peptide 35] (H-LPVVFRVASKVFPALISKLT-OH; N-terminus and C-terminus assumed) | 256 µg/mL (≈ 117 µM) | 256 µg/mL (≈ 117 µM) |  | 128 µg/mL (≈ 58.6 µM) |  | + (key: +: MIC greater than 256 ug/mL; ++: MIC greater than 128 ug/mL, not sufficiently soluble to test as 256 ug/mL) |  |  |  |  | 
CC(C)C[C@H](NC(=O)[C@H](C)NC(=O)[C@H](CO)NC(=O)[C@H](Cc1ccccc1)NC(=O)[C@@H](NC(=O)[C@H](CO)NC(=O)[C@@H]1CCCN1C(=O)[C@@H](NC(=O)[C@@H](NC(=O)[C@H](CCCCN)NC(=O)[C@H](CO)NC(=O)[C@H](C)NC(=O)[C@H](CC(C)C)NC(=O)[C@H](CCCCN)NC(=O)[C@H](Cc1ccccc1)NC(=O)[C@@H](NC(=O)[C@H](Cc1ccccc1)NC(=O)[C@@H](N)CO)C(C)C)C(C)C)C(C)C)C(C)C)C(=O)N[C@H](C(=O)N[C@@H](CCCNC(=N)N)C(=O)O)[C@@H](C)O [Peptide 43] (H-SFVFKLASKVVPSVFSALTR-OH; N-terminus and C-terminus assumed) | 256 µg/mL | 256 µg/mL | 256 µg/mL | 128 µg/mL |  |  |  |  |  |  | 
CC[C@H](C)[C@H](NC(=O)[C@H](CC(C)C)NC(=O)[C@H](C)NC(=O)[C@@H]1CCCN1C(=O)[C@H](Cc1ccccc1)NC(=O)[C@@H](NC(=O)[C@H](CCCCN)NC(=O)[C@H](CO)NC(=O)[C@H](C)NC(=O)[C@@H](NC(=O)[C@H](CCCNC(=N)N)NC(=O)[C@H](Cc1ccccc1)NC(=O)[C@H](CC(C)C)NC(=O)[C@@H](N)Cc1ccccc1)C(C)C)C(C)C)C(=O)NCC(=O)N[C@@H](CCCCN)C(=O)N[C@@H](Cc1ccccc1)C(=O)N[C@@H](CCCCN)C(=O)N[C@@H](CCCCN)C(=O)N[C@@H](CCCCN)C(=O)O [Peptide 51] (H-FLFRVASKVFPALIGKFKKK-OH; N-terminus and C-terminus assumed) | 16 µg/mL (≈ 6.88 µM) | 16 µg/mL (≈ 6.88 µM) | 64 µg/mL (≈ 27.5 µM) | 16 µg/mL (≈ 6.88 µM) | greater than 512 μg/ml |  |  |  |  |  | 
CC(C)C[C@H](NC(=O)[C@H](CCCCN)NC(=O)[C@H](Cc1ccccc1)NC(=O)[C@H](CC(C)C)NC(=O)[C@@H](NC(=O)[C@@H]1CCCN1C(=O)[C@@H](N)CC(C)C)C(C)C)C(=O)N[C@@H](C)C(=O)N[C@@H](CO)C(=O)N[C@@H](CCCCN)C(=O)N[C@H](C(=O)N[C@@H](Cc1ccccc1)C(=O)N1CCC[C@H]1C(=O)N[C@@H](C)C(=O)N[C@H](C(=O)N[C@@H](Cc1ccccc1)C(=O)N[C@@H](CO)C(=O)N[C@@H](CO)C(=O)N[C@@H](CC(C)C)C(=O)N[C@@H](CCCCN)C(=O)O)C(C)C)C(C)C [Peptide 63] (H-LPVLFKLASKVFPAVFSSLK-OH; N-terminus and C-terminus assumed) | 64 µg/mL (≈ 29.2 µM) | 128 µg/mL (≈ 58.4 µM) | 256 µg/mL (≈ 117 µM) | 128 µg/mL (≈ 58.4 µM) |  |  |  |  |  |  | 
CC(C)C[C@H](NC(=O)[C@@H](NC(=O)[C@@H]1CCCN1C(=O)[C@H](CC(C)C)NC(=O)[C@@H](N)Cc1ccccc1)C(C)C)C(=O)N[C@H](C(=O)N[C@@H](CCCCN)C(=O)N[C@H](C(=O)N[C@@H](Cc1ccccc1)C(=O)N[C@@H](CCCNC(=N)N)C(=O)N[C@@H](Cc1ccc(O)cc1)C(=O)N[C@@H](CO)C(=O)N[C@@H](CCCCN)C(=O)N[C@@H](CCCCN)C(=O)N[C@H](C(=O)N[C@@H](C)C(=O)N[C@@H](C)C(=O)NCC(=O)N[C@@H](CS)C(=O)N[C@@H](Cc1ccccc1)C(=O)O)[C@@H](C)O)C(C)C)C(C)C [Shuffled 5] (H-FLPVLVKVFRYSKKTAAGCF-OH; N-terminus and C-terminus assumed) | 64 µg/mL (≈ 28.1 µM) |  |  | + (key: +: MIC greater than 256 ug/mL; ++: MIC greater than 128 ug/mL, not sufficiently soluble to test as 256 ug/mL) |  |  | + (MIC greater than 256 ug/mL) | ++ (MIC greater than 128 ug/mL, not sufficiently soluble to test as 256 ug/mL) |  |  | 
CC[C@H](C)[C@H](NC(=O)[C@H](CC(C)C)NC(=O)[C@H](C)NC(=O)[C@@H]1CCCN1C(=O)[C@H](C)NC(=O)[C@@H](NC(=O)[C@H](CCCCN)NC(=O)[C@@H](N)CCCNC(=N)N)C(C)C)C(=O)N[C@@H](CCCCN)C(=O)N[C@@H](CO)C(=O)N[C@@H](Cc1ccccc1)C(=O)N[C@H](C(=O)N[C@@H](Cc1ccccc1)C(=O)N[C@@H](CC(C)C)C(=O)N[C@@H](Cc1ccccc1)C(=O)N[C@@H](CCCCN)C(=O)N[C@@H](Cc1ccccc1)C(=O)N[C@@H](CCCCN)C(=O)N[C@@H](CCCCN)C(=O)NCC(=O)O)C(C)C [Shuffled 51] (H-RKVAPALIKSFVFLFKFKKG-OH; N-terminus and C-terminus assumed) |  | 128 µg/mL (≈ 55.1 µM) |  | 256 µg/mL (≈ 110 µM) |  | + (key: +: MIC greater than 256 ug/mL; ++: MIC greater than 128 ug/mL, not sufficiently soluble to test as 256 ug/mL) |  |  |  |  | 
ASPTVFRSSVFLSLFVVAKK [Shuffled 43] |  |  |  | + (key: +: MIC greater than 256 ug/mL; ++: MIC greater than 128 ug/mL, not sufficiently soluble to test as 256 ug/mL) |  |  | + (MIC greater than 256 ug/mL) | + (MIC greater than 256 ug/mL) | + (MIC greater than 256 ug/mL) |  | 
GVSVAGAKKVKVLFVFPFLF [Shuffled 28] |  |  |  | + (key: +: MIC greater than 256 ug/mL; ++: MIC greater than 128 ug/mL, not sufficiently soluble to test as 256 ug/mL) |  |  | + (MIC greater than 256 ug/mL) | + (MIC greater than 256 ug/mL) | + (MIC greater than 256 ug/mL) |  | 
KVFIATLVVSSFLLAKPPRV [Shuffled 35] |  |  |  | + (key: +: MIC greater than 256 ug/mL; ++: MIC greater than 128 ug/mL, not sufficiently soluble to test as 256 ug/mL) |  |  | + (MIC greater than 256 ug/mL) | + (MIC greater than 256 ug/mL) | + (MIC greater than 256 ug/mL) |  | 
SVPSVGAVLFFKRAAVMKLI [Shuffled 22] |  |  |  | + (key: +: MIC greater than 256 ug/mL; ++: MIC greater than 128 ug/mL, not sufficiently soluble to test as 256 ug/mL) |  |  | + (MIC greater than 256 ug/mL) | + (MIC greater than 256 ug/mL) | + (MIC greater than 256 ug/mL) |  | 
THIHMNARLLIRSPFTDPQL [Peptide 10] |  |  |  | + (key: +: MIC greater than 256 ug/mL; ++: MIC greater than 128 ug/mL, not sufficiently soluble to test as 256 ug/mL) |  |  |  | + (MIC greater than 256 ug/mL) |  | + (key: +: MIC greater than 256 ug/mL; ++: MIC greater than 128 ug/mL, not sufficiently soluble to test as 256 ug/mL) | + (key: +: MIC greater than 256 ug/mL; ++: MIC greater than 128 ug/mL, not sufficiently soluble to test as 256 ug/mL)
